Assay results as given in ChEMBL document CHEMBL6127128, “Discovery of the First-in-Class Dual-Target ROCK/HDAC Inhibitor with Potent Antitumor Efficacy in Vivo That Trigger Antitumor Immunity” (J Med Chem, 2024).
Values after ≈ are worked out from the molar mass of the structure shown. Active and inactive are the calls of the source. No cut-off for these calls is given here.

What was measured:
[1] = Half-life in Balb/c mouse at 50 mg/kg, po measured for 24 hrs by LC-MS/MS analysis; format: ADME, organism-based; settings: in vivo
MDA-MB-231 [2] = assay: Induction of immunogenic cell death-associated DAMP release in human MDA-MB-231 cells assessed as increase in CRT expression level at 1 to 10 uM incubated for 24 hrs by western blot analysis; format: functional, cell-based; settings: dose 1-10 µM
[3] = Toxicity against Balb/c mouse implanted with mouse 4T1 cells assessed as effect on morphological changes in kidneys at 25 to 50 mg/kg, po administered daily for 15 days by Hematoxylin-Eosin staining based analysis; format: organism-based; settings: in vivo, 360 h, dose 25-50 mg/kg, time 15 day
[4] = Tmax in Balb/c mouse at 1 mg/kg, iv measured for 24 hrs by LC-MS/MS analysis; format: ADME, organism-based; settings: in vivo
Histone deacetylase 7 = molecular target: T1, Histone deacetylase 7 (Homo sapiens, UniProt Q8WUI4); assay: Inhibition of HDAC7 (unknown origin) using Ac-Leu-Gly-Lys(tfa)-AMC as substrate preincubated for 5 mins followed by substrate addition for 30 mins and measured following trypsin addition for 30 mins by fluorescence based analysis
T1 sequence (Q8WUI4 whole entry): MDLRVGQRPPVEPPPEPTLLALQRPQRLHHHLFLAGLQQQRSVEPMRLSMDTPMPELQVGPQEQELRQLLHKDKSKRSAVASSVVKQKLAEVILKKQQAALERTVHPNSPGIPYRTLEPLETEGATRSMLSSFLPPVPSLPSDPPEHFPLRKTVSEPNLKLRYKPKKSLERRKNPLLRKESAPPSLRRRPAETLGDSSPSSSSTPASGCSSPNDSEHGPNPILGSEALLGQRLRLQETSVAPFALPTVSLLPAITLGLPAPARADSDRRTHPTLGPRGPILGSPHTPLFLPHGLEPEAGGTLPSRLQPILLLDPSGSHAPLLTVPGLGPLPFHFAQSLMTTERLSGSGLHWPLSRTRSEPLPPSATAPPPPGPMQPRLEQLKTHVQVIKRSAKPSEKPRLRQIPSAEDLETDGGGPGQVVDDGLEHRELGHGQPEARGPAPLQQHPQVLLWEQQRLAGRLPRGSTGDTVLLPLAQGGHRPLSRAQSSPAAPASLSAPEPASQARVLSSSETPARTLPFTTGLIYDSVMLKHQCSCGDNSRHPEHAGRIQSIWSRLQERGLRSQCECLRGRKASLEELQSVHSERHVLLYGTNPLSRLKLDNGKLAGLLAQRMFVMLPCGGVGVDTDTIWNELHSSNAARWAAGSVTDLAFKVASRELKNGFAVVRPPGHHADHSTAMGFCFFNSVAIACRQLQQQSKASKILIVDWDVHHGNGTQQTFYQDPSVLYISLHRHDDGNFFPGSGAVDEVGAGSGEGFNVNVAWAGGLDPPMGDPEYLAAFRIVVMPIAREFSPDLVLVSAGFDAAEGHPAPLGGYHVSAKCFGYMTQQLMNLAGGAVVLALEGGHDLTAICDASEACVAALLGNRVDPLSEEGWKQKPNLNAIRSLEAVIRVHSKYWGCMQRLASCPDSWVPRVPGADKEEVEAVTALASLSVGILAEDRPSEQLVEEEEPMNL

Histone deacetylase 9 = Histone deacetylase 9 (Homo sapiens, UniProt Q9UKV0); assay: Inhibition of HDAC9 (unknown origin) using Ac-Leu-Gly-Lys(tfa)-AMC as substrate preincubated for 5 mins followed by substrate addition for 30 mins and measured following trypsin addition for 30 mins by fluorescence based analysis
Sequence of Histone deacetylase 9 (Q9UKV0 whole entry): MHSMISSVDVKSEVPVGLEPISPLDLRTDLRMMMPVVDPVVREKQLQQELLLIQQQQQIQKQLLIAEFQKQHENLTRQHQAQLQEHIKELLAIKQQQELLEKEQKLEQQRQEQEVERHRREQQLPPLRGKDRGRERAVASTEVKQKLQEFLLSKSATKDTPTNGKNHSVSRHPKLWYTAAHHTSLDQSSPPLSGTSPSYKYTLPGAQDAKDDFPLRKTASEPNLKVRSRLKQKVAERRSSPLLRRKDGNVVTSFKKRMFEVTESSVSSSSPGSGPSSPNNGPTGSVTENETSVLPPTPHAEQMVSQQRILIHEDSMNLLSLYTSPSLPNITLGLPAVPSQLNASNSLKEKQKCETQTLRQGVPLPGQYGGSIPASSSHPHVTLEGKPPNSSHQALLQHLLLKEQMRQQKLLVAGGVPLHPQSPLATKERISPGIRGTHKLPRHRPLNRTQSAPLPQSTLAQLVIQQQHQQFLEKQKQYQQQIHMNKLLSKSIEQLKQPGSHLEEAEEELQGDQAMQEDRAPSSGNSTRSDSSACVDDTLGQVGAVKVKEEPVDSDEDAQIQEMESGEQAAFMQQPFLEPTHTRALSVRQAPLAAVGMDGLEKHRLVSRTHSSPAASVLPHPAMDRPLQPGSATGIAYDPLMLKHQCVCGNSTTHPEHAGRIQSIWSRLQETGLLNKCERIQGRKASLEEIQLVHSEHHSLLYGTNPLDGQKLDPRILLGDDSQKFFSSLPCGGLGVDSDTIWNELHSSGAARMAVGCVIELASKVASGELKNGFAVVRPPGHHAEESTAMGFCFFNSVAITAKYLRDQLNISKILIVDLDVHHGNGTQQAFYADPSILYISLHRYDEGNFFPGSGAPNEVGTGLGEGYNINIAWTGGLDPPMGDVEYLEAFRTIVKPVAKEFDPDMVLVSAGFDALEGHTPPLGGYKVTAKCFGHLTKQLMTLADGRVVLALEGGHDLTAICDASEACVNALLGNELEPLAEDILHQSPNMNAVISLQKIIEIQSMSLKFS

MDA-MB-231 [5] = assay: Induction of immunogenic cell death-associated DAMP release in human MDA-MB-231 cells assessed as decrease in HMGB1 expression level at 1 to 10 uM incubated for 24 hrs by western blot analysis; format: functional, cell-based; settings: dose 1-10 µM
4T1 [6] = assay: Antitumor immunity against mouse 4T1 cells implanted in Balb/c mouse assessed as increase in CD40+ dendritic cells in tumor tissue at 50 mg/kg, po administered daily for 15 days by immunohistochemistry relative to SAHA; format: functional; settings: time 15 day
[7] = Aqueous solubility of the compound in aqueous buffer at pH 7.4; format: physicochemical
[8] = Lipophilicity, log D of the compound at pH 7.4; format: physicochemical; settings: buffer
4T1 [9] = assay: Antitumor immunity against mouse 4T1 cells implanted in Balb/c mouse assessed as increase in CD8+ T cells in tumor tissue at 50 mg/kg, po administered daily for 15 days by flow cytometry relative to SAHA; format: functional; settings: time 15 day
[10] = molecular target: T2, Polyamine deacetylase HDAC10 (Homo sapiens, UniProt Q969S8); assay: Inhibition of HDAC10 (unknown origin) using Ac-Arg-His-Lys(Ac)-Lys(Ac)-AMC as substrate preincubated for 5 mins followed by substrate addition for 30 mins and measured following trypsin addition for 30 mins by fluorescence based analysis
T2 sequence (Q969S8 whole entry): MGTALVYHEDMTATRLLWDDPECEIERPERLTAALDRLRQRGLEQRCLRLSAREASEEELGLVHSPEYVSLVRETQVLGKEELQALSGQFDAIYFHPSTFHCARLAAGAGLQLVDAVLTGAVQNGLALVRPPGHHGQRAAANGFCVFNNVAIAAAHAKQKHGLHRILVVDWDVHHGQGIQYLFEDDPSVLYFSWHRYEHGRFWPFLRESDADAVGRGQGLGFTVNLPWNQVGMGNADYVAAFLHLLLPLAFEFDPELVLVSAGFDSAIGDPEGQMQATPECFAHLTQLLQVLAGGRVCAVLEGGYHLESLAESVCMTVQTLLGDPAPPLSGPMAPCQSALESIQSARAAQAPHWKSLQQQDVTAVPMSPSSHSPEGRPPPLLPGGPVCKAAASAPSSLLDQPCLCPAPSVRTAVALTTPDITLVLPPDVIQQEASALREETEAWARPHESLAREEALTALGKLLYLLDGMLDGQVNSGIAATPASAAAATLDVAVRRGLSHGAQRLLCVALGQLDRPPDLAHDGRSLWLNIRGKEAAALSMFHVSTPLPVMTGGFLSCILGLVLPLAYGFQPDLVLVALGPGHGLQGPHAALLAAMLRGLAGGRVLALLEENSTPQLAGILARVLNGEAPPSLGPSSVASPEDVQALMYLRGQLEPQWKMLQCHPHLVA

4T1 [11] = assay: Antitumor activity against mouse 4T1 cells implanted in Balb/c mouse assessed as inhibition of tumor growth rate at 25 mg/kg, po administered daily for 15 days; format: functional; settings: 4T1, 360 h, time 15 day, read-out: TGI
4T1 [12] = assay: animal or person; format: functional; settings: Mus musculus, 4T1, 360 h, route po, time 15 day, read-out: TGI
Description: Antitumor activity against mouse 4T1 cells implanted in Balb/c mouse assessed as inhibition of tumor growth rate at 50 mg/kg, po administered daily for 15 days

Histone deacetylase 2 = Histone deacetylase 2 (Homo sapiens, UniProt Q92769); assay: Inhibition of HDAC2 (unknown origin) using Ac-Leu-Gly-Lys(Ac)-AMC as substrate preincubated for 5 mins followed by substrate addition for 30 mins and measured following trypsin addition for 30 mins by fluorescence based analysis
Sequence of Histone deacetylase 2 (Q92769 whole entry): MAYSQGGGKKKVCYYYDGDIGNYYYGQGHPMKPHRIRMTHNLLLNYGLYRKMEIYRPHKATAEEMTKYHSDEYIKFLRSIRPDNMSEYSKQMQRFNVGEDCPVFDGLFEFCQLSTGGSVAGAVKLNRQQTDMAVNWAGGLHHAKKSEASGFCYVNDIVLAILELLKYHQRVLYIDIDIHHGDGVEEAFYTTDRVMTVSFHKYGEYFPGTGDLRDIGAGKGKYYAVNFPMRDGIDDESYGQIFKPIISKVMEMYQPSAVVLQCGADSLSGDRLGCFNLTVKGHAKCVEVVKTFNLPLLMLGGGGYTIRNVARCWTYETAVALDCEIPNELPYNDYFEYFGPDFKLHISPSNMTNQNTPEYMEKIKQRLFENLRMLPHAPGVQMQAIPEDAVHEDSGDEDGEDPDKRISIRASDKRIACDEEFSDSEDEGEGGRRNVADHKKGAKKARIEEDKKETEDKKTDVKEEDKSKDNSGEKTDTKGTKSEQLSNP

[13] = Half-life in Balb/c mouse at 1 mg/kg, iv measured for 24 hrs by LC-MS/MS analysis; format: ADME, organism-based; settings: in vivo

half-life [1]: 12.2 h
Tmax [4]: 4.8 min
IC50 (Histone deacetylase 7): > 10 µM
IC50 (Histone deacetylase 9): > 10 µM
solubility [7]: 0.695 µg/mL (≈ 1.8 µM)
logD [8]: 3.29
IC50 [10]: > 10 µM
IC50 (Histone deacetylase 2): 0.00803 µM
half-life [13]: 22.3 h
SMILES: O=C(CCCCCCNC(=O)c1cc2cc(-c3cn[nH]c3)ccc2s1)NO
Activity (MDA-MB-231 [2]): Active
Activity [3]: Non-Toxic
Activity (MDA-MB-231 [5]): Active
fold change (FC) (4T1 [6]): 2.3
fold change (FC) (4T1 [9]): 1.21
inhibition in vivo at 25 mg/kg (4T1 [11]): 45%
inhibition in vivo at 50 mg/kg (4T1 [12]): 69.4%
